What was measured:
[1] = biological target: T1, Arachidonate 5-lipoxygenase-activating protein (Homo sapiens, UniProt P20292); test: Inhibition of 5-LO in human neutrophils preincubated for 10 mins followed by Ca2+ ionophore A23187 addition and measured after 10 mins by RP-HPLC analysis
T1 sequence (P20292 whole entry): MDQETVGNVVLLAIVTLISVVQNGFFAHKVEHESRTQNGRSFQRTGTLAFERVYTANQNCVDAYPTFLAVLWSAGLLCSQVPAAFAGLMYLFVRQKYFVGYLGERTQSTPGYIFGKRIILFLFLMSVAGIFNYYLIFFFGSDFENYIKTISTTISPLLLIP

[2] = biological target: T2, Bifunctional epoxide hydrolase 2 (Homo sapiens, UniProt P34913); test: Inhibition of recombinant human sEH preincubated for 10 mins followed by PHOME substrate addition and measured after 60 mins by fluorescence-based assay
T2 sequence (P34913 whole entry): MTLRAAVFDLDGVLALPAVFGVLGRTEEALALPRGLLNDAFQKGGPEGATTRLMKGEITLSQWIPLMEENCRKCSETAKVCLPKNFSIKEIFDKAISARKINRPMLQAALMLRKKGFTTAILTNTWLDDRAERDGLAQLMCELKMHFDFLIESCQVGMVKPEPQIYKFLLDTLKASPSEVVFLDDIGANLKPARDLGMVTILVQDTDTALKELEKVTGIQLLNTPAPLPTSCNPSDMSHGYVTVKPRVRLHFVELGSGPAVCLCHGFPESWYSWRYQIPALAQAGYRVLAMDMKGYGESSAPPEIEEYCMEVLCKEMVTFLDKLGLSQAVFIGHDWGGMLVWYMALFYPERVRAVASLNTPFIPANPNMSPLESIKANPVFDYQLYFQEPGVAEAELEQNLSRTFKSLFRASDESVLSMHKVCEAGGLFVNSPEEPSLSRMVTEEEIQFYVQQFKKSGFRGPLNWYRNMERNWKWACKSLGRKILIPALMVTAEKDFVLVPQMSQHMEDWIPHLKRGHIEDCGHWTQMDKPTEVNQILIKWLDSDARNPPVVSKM

| IC50 [1] [nM] | IC50 [2] [nM] | Compound |
| --- | --- | --- |
| 2070 | 6.5 | Cc1cc(NC(=O)Nc2ccccc2)ccc1OCc1nc2ccccc2s1 |
| 80 | 20 | Cc1cc(OCc2nc3ccccc3s2)ccc1NC(=O)Nc1cc(Cl)cc(Cl)c1 |
| 1130 | 25.2 | O=C(Nc1ccc(SCc2nc3ccccc3s2)cc1)Nc1ccc(Cl)c(Cl)c1 |
| 1010 | 13.9 | O=C(Nc1ccc(Cl)cc1)Nc1ccc(OCc2nc3ccccc3s2)cc1 |
| 170 | 25.9 | O=C(Nc1ccc(OCc2nc3ccccc3s2)cc1)Nc1cccc(Cl)c1 |
| 10800 | 9.1 | O=C(Nc1ccc(/C=C/c2nc3ccccc3s2)cc1)Nc1ccc(Cl)c(Cl)c1 |
| 830 | 1500 | Cc1cc(OCc2nc3ccccc3s2)ccc1NC(=O)Nc1ccccc1Cl |
| 160 | 15.8 | Cc1cc(OCc2nc3ccccc3s2)ccc1NC(=O)Nc1cccc(Cl)c1 |
| 90 | 15.2 | O=C(Nc1ccc(OCc2nc3ccccc3s2)cc1)Nc1cc(Cl)cc(Cl)c1 |
| 570 | 10.3 | O=C(Nc1ccc(OCc2nc3ccccc3s2)cc1)Nc1ccc(Cl)c(Cl)c1 |
| 680 | 35.1 | Cc1cc(NC(=O)Nc2ccccc2Cl)ccc1OCc1nc2ccccc2s1 |
| > 10000 | 11.7 | O=C(Nc1ccc(CCc2nc3ccccc3s2)cc1)Nc1ccc(Cl)c(Cl)c1 |
| – | 23 | Cc1cc(OCc2nc3ccccc3s2)ccc1NC(=O)Nc1ccc(Cl)c(Cl)c1 |
| 730 | 61.9 | Cc1cc(OCc2nc3ccccc3s2)ccc1NC(=O)Nc1ccccc1 |
| 570 | 5.2 | Cc1cc(OCc2nc3ccccc3s2)ccc1NC(=O)Nc1ccc(Cl)cc1 |
| 420 | 111 | O=C(Nc1ccccc1)Nc1ccc(OCc2nc3ccccc3s2)cc1 |
| 2090 | 2 | Cc1cc(NC(=O)Nc2cccc(Cl)c2)ccc1OCc1nc2ccccc2s1 |
| > 10000 | 4.1 | Cc1cc(NC(=O)Nc2ccc(Cl)cc2)ccc1OCc1nc2ccccc2s1 |
| 360 | 279 | O=C(Nc1ccc(OCc2nc3ccccc3s2)cc1)Nc1ccccc1Cl |
| 2170 | 0.6 | Cc1cc(NC(=O)Nc2ccc(Cl)c(Cl)c2)ccc1OCc1nc2ccccc2s1 |
| 720 | 0.8 | Cc1cc(NC(=O)Nc2cc(Cl)cc(Cl)c2)ccc1OCc1nc2ccccc2s1 |

Reference: ChEMBL document CHEMBL4382289, “Synthesis, Biological Evaluation and Structure-Activity Relationships of Diflapolin Analogues as Dual sEH/FLAP Inhibitors” (ACS Med Chem Lett, 2019)
